Starred links: 1 amine or outer side, 2 acyl side, 3 side chain; linkers in the order of their positions; H or OH if unused. Non-standard residues stand in square brackets, D forms with d. Residues, ends and D or L forms follow the SMILES beside them. *: point of attachment. Trp(7-Me) = Cc1cccc2c(C[C@H](N)C(=O)O)c[nH]c12; C20 diacid = O=C(O)CCCCCCCCCCCCCCCCCCC(=O)*; d(γGlu) = O=C(O)[C@@H](CCC(=O)[*:2])N[*:1]; C18 diacid = O=C(O)CCCCCCCCCCCCCCCCC(=O)*; γGlu = O=C(O)[C@H](CCC(=O)[*:2])N[*:1]; 3Pal = N[C@@H](Cc1cccnc1)C(=O)O; X2 = O=C(CC1(N[*:1])CC1)[*:2]; Nle = CCCC[C@H](N)C(=O)O; AEEA = NCCOCCOCC(=O)O; βAla = NCCC(=O)O; Sar = CNCC(=O)O
These molecules were tested against T1, human GRP receptors (Homo sapiens, UniProt P30550) (assay: IP1 GRPR activity: HTRF IP1-Gq assay in U2OS cells stably expressing human GRP receptors). Details: 90 minutes incubation, read-out: hIP1 GRPR EC50.
T1 construct: host or cells: U2OS
T1 sequence (P30550 whole entry): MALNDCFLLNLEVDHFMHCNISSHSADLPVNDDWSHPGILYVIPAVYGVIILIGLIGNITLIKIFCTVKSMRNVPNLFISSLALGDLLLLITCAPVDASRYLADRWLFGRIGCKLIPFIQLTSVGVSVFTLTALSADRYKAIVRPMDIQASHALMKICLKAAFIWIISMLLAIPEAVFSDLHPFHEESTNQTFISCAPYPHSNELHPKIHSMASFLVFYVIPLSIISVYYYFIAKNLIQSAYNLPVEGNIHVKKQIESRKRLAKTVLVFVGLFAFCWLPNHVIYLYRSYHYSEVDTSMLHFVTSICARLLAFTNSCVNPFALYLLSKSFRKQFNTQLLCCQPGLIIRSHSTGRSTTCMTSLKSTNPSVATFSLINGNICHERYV
Assay type: cell-based
Experimental: U2OS cells stably expressing human GRP receptors (DiscoverX, #93-0229C3) were cultured according to manufacturer's instructions. Cells were cultured to […], then collected using AccuTase (Innovative Cell Technologies, #AT104). Cells were washed and plated on a poly-D-lysine-coated 384-well plate (ThermoFisher, #A3890401) at a density of 2,500 cells/well in […] assay buffer (AssayComplete Cell Plating 5 Reagent, DiscoverX #93-0563R5), then incubated overnight at 37° C. and 5% C02. The following morning, a homogenous time-resolved fluorescence (HTRF) assay was performed in a 384-well plate format using the IP1-Gq assay kit (Cisbio, 62IPAPEB). Test compounds were made as a stock in DMSO, then serially diluted to generate 10-point dose response curves in IP1 stimulation buffer. Five microliters of the prepared compounds were then added to the plate containing cells and assay buffer in duplicate, and the cells were incubated at 37° C. and 5% CO2 for 90 minutes. Following compound incubation, […] of IP1 lysis/detection buffer (prepared according to manufacturer's instructions) was added to each well, and the plates were incubated at room temperature for 1 hour. HTRF signals were measured using a plate reader (ClarioSTAR), calculating the ratio between emissions at 665 nm and 620 nm (HTRF ratio). HTRF ratio for positive (Max, […]; SEQ ID NO. 45) and negative (Min, DMSO) controls were used to normalize HTRF data and generate values for % activity. EC50 and Max activity values were determined using a standard 4-parameter fit using GraphPad Prism.

SMILES	EC50
CC(C)C[C@H](NC(=O)[C@H](Cc1c[nH]cn1)NC(=O)[C@@H](C)NC(=O)[C@@H](NC(=O)[C@H](C)NC(=O)[C@H](Cc1c[nH]c2ccccc12)NC(=O)[C@H](Cc1c[nH]cn1)NC(=O)[C@H](CC(N)=O)NC(=O)CNC(=O)COCCOCCNC(=O)COCCOCCNC(=O)CC[C@@H](NC(=O)CCCCCCCCCCCCCCCCC(=O)O)C(=O)O)C(C)C)C(=O)N[C@@H](CCCNC(=N)N)C(N)=O [Peptide 69, Octadecanedioyl-D-γGlu-OEG-OEG-Gly-Asn-His-Trp-Ala-Val-D-Ala-His-Leu-Arg-NH2] ({C18 diacid-d(γGlu)-AEEA-AEEA}-GNHWAV[dA]HLR-NH2)	> 10 µM
CCCC[C@H](NC(=O)[C@H](CC(C)C)NC(=O)[C@H](Cc1c[nH]cn1)NC(=O)[C@@H](C)NC(=O)[C@@H](NC(=O)[C@H](C)NC(=O)[C@H](Cc1c[nH]c2ccccc12)NC(=O)[C@H](Cc1cccnc1)NC(=O)[C@H](CC(N)=O)NC(=O)CNC(=O)COCCOCCNC(=O)COCCOCCNC(=O)CC[C@@H](NC(=O)CCCCCCCCCCCCCCCCC(=O)O)C(=O)O)C(C)C)C(=O)N(C)CC(N)=O [Peptide 72, Octadecanedioyl-D-γGlu-OEG-OEG-Gly-Asn-3Pal-Trp-Ala-Val-D-Ala-His-Leu-Nle-Sar-NH2] ({C18 diacid-d(γGlu)-AEEA-AEEA}-GN[3Pal]WAV[dA]HL[Nle][Sar]-NH2)	1.05 µM
CCCC[C@H](NC(=O)[C@H](CC(C)C)NC(=O)[C@H](Cc1c[nH]cn1)NC(=O)[C@@H](C)NC(=O)[C@@H](NC(=O)[C@H](C)NC(=O)[C@H](CCCNC(=N)N)NC(=O)[C@H](Cc1c[nH]cn1)NC(=O)[C@H](CC(N)=O)NC(=O)CNC(=O)COCCOCCNC(=O)COCCOCCNC(=O)CC[C@H](NC(=O)CCCCCCCCCCCCCCCCC(=O)O)C(=O)O)C(C)C)C(=O)N(C)CC(N)=O [Peptide 130, Octadecanedioyl-γGlu-OEG-OEG-Gly-Asn-His-Arg-Ala-Val-D-Ala-His-Leu-Nle-Sar-NH2] ({C18 diacid-γGlu-AEEA-AEEA}-GNHRAV[dA]HL[Nle][Sar]-NH2)	> 10 µM
CCCC[C@H](NC(=O)[C@H](CC(C)C)NC(=O)[C@H](Cc1c[nH]cn1)NC(=O)CC1(NC(=O)[C@@H](NC(=O)[C@H](C)NC(=O)[C@H](Cc2c[nH]c3ccccc23)NC(=O)[C@H](Cc2c[nH]cn2)NC(=O)[C@H](CCC(N)=O)NC(=O)CNC(=O)COCCOCCNC(=O)COCCOCCNC(=O)CC[C@H](NC(=O)CC[C@H](NC(=O)CCCCCCCCCCCCCCCCCCC(=O)O)C(=O)O)C(=O)O)C(C)C)CC1)C(N)=O [Peptide 272, Eicosanedioyl-γGlu-γGlu-OEG-OEG-Gly-Gln-His-Trp-Ala-Val-ACPA-His-Leu-Nle-NH2] ({C20 diacid-γGlu-γGlu-AEEA-AEEA}-GQHWAV[X2]HL[Nle]-NH2)	0.006 µM
CCCC[C@H](NC(=O)[C@H](CC(C)C)NC(=O)[C@H](Cc1c[nH]cn1)NC(=O)[C@@H](C)NC(=O)[C@@H](NC(=O)[C@@H](C)NC(=O)[C@H](Cc1c[nH]c2ccccc12)NC(=O)[C@H](Cc1c[nH]cn1)NC(=O)[C@H](CC(N)=O)NC(=O)CNC(=O)COCCOCCNC(=O)COCCOCCNC(=O)CC[C@H](NC(=O)CCCCCCCCCCCCCCCCC(=O)O)C(=O)O)C(C)C)C(=O)N(C)CC(N)=O [Peptide 115, Octadecanedioyl-γGlu-OEG-OEG-Gly-Asn-His-Trp-D-Ala-Val-D-Ala-His-Leu-Nle-Sar-NH2] ({C18 diacid-γGlu-AEEA-AEEA}-GNHW[dA]V[dA]HL[Nle][Sar]-NH2)	> 10 µM
CCCC[C@H](NC(=O)[C@H](CC(C)C)NC(=O)[C@H](Cc1c[nH]cn1)NC(=O)CCNC(=O)[C@@H](NC(=O)[C@H](C)NC(=O)[C@H](Cc1c[nH]c2c(C)cccc12)NC(=O)[C@H](Cc1c[nH]cn1)NC(=O)[C@H](CCCNC(=N)N)NC(=O)CNC(=O)[C@H](CO)NC(=O)COCCOCCNC(=O)COCCOCCNC(=O)CC[C@H](NC(=O)CC[C@H](NC(=O)CCCCCCCCCCCCCCCCCCC(=O)O)C(=O)O)C(=O)O)C(C)C)C(N)=O [Peptide 256, Eicosanedioyl-γGlu-Glu-OEG-OEG-Ser-Gly-Arg-His-7MeTrp-Ala-Val-β-Ala-His-Leu-Nle-NH2] ({C20 diacid-γGlu-γGlu-AEEA-AEEA}-SGRH[Trp(7-Me)]AV[βAla]HL[Nle]-NH2)	0.0037 µM
